According to patent US9844506B2, “Compositions and methods for affecting mood states” (priority 2013, dated 2017):

Tests used:
[1] = Interaction of nitric oxide with carriers, weight gain on bubbling NO gas (Example 2); format: physicochemical; settings: NO bubbled 40 hr, 25° C.
Procedure: In this example, six experiments were carried out to investigate the interaction of nitric oxide with three carriers (HNC 157-62, HNC 157-65, and HNC 157-69) as well as with 1,3-propanediol, using experimental conditions similar to that described for Example 1. In addition three experiments were performed to prepare carriers containing 800 ppm and 500 ppm nitric oxide. HNC 157-62 was formed of 65% Phospholipon-90G (American Lecithin Company), 18% isopropyl palmitate (Kraft Chemicals), 8% capric caprylic triglycerides (RITA Corp.), and 9% propanediol (Dupont). HNC 157-65 was formed of 65% Phospholipon-90G, 13% isopropyl palmitate, 14% capric caprylic triglycerides, 3% propanediol, and 5% dimethyl isosorbide (Croda). HNC 157-69 was formed from 65% Phospholipon-90G, 16% isopropyl palmitate, and 19% capric caprylic triglycerides.
The compositions were generally prepared as follows. Isopropyl palmitate, capric caprylic triglyceride, propanediol (for HNC 157-62 and HNC 157-65), and dimethyl isosorbide (for HNC 157-65) were mixed together and warmed to 40° C. Phospholipon-90G was then gradually added to this liquid mixture by mixing it. Phospholipon-90G is typically received as individual pellets, and is mixed into the solution until fully dissolved. The mixture was subsequently filtered through a sieve to remove any undissolved Phospholipon-90G. […]

[2] = test system: cutaneous vascular system; assay: Laser Doppler circulation in five human subjects, 10,000 ppm NO formulation (Example 8); format: in vivo; settings: positive control formulation containing 0.1% methyl nicotinate
Description: This example illustrates delivery of nitric oxide formulations to five human subjects, using procedures and formulations similar to those discussed in Example 5. Each person served as their own control for the testing. A Moor Instruments Laser Doppler was used to determine circulation. […] The formulations used produce positive, almost immediate results when applied to the skin which, in these studies, was manifested by vasodilatation of the cutaneous vascular system.
For each subject, the following creams were applied: a negative control formulation (containing no NO), 0.010 gram of a 10,000 ppm NO formulation, 0.020 gram of a 10,000 ppm NO formulation, and a positive control formulation containing 0.1% methyl nicotinate. The formulations were prepared using procedures similar to those discussed in Example 1.

[3] = test system: microcirculation of the skin; assay: Laser Doppler capillary blood flow in human female subjects, 10,000 ppm NO in closed chamber (Example 5); format: in vivo; settings: applied to skin at 1/10% in alcohol
Description: The formulation used in these studies contained nitric oxide dispersed in a lipid matrix. […] Nitric oxide is a very rapid acting molecule, and these studies used a system that employed laser Doppler with a covered chamber. The formulation was placed into the chamber and then attached to the skin by an adhesive layer on the covering. This provided a stable measuring device as determined by multiple normal evaluations of the capillary blood flow without treatment of nitric oxide.
A known positive control, methyl nicotinate, was applied to the skin at a concentration of 1/10% in alcohol. […] The vascular dynamics are such that when the blood vessels dilate physical parameters follow Bernoulli's law. This states that as one increases the diameter of a tube containing a liquid to flow will increase but the pressure and the speed of the liquid will decrease. The laser Doppler device accurately measured these parameters.
The test product was labeled as 10,000 ppm NO (nitric oxide). The study participants had 100 mg of the test product applied in a closed Hilltop chamber on the forearm. […]
A Moor Instruments DRT4 Laser Doppler Blood Flow Monitor (Devon, England) was used in these studies. The laser Doppler technique measured blood flow in the microcapillaries of the skin that are close to the skin surface and the blood flow in underlying arterioles and venules that help to regulate skin temperature. […]

OCCCO [1,3-Propanediol, 1,3-propanediol]
% Wt. gain [1]: 0.09% | Wt. Gain [1]: 0.16 g

COC(=O)c1cccnc1 [methyl nicotinate]
vasodilatation versus control untreated skin [2]: vasodilatation was observed | laser Doppler response to positive control [3]: rapid response typical of the vasodilator
